According to patent US4649200A, “Substituted pyrroles with opioid receptor activity” (Regents of the University of Minnesota, priority 1986, dated 1987):
Entries after “also recorded” stand apart in the source; their conditions may differ.

What was measured:
[1] = test system: guinea pig ileal longitudinal muscle (GPI); assay: Agonism on electrically stimulated guinea pig ileal longitudinal muscle (GPI); type: cell-based
Experimental: (§1) Ilea from guinea pigs were taken approximately 10 cm from the ileocaecal junction, and a strip of longitudinal muscle with the myenteric plexus attached was prepared by method of Rang et al., Brit. J. Phamacol., 22, 356 (1964), the disclosure of which is incorporated by reference herein. A 1 cm portion of this strip was then mounted between two platinum electrodes placed in a 10 ml organ bath and connected to an isometric transducer; contractions were recorded on a polygraph. Contractions of the ileal strip were initiated by supramaximal rectangular pulses in all preparations (80 V of 0.5 ms duration at a frequency of 0.1 Hz). Krebs bicarbonate solution containing 1.25 uM chlorpheniramine maleate was the bathing solution and was continuously bubbled with 95% O2 and 5% CO2. The organ bath was maintained at 36°-37° C. The longitudinal muscle strip was allowed to equilibrate with continuous stimulation for a minimun of 90 min. Cumulative concentration-response curves were determined after drugs were added to the bath in 10- to 50-uL amounts and washed out with two 10 ml portions of buffer after noting their maximum effects.
(§2) Compounds IIIa-IIIh and TENA were tested on the electrically-stimulated guniea pig ileal longitudinal muscle (GPI) and, where appropriate, the mouse vas deferens preparation (MVD).
(§3) ^a For ligands that are partial or pure antagonists, the highest
(§4) concentration and maximal response is given. Potencies of pure agonists
(IIIeh) are relative to morphine = 1.

mu receptor = biological target: T1, mu receptor (Cavia porcellus, UniProt A0ACM8Q262); assay: Antagonism of morphine sulfate (mu agonist) on the GPI, IC50 ratio; type: cell-based, guinea pig
T1 construct: antagonism of morphine
T1 sequence (A0ACM8Q262 1-400): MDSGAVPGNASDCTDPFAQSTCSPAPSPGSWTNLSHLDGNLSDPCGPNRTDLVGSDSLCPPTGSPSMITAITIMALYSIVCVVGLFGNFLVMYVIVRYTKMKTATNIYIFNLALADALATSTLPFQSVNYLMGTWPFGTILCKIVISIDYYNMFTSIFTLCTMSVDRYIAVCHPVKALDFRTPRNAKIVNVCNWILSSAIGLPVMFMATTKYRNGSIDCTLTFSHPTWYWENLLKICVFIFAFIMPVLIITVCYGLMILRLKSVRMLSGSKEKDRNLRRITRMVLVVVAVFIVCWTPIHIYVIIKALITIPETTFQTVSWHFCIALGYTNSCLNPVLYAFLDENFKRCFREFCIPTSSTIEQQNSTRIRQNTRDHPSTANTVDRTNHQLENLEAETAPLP
Experimental: as §1

kappa opioid receptor [2] = biological target: T2, kappa opioid receptor (Cavia porcellus, UniProt P41144); assay: Antagonism of ethylketazocine (EK, kappa agonist) on the GPI, IC50 ratio; type: cell-based, guinea pig
T2 construct: a strip of longitudinal muscle with the myenteric plexus attached was prepared; from tissue; host or cells: guinea pig ileal longitudinal muscle strip with myenteric plexus
T2 sequence (P41144 whole entry): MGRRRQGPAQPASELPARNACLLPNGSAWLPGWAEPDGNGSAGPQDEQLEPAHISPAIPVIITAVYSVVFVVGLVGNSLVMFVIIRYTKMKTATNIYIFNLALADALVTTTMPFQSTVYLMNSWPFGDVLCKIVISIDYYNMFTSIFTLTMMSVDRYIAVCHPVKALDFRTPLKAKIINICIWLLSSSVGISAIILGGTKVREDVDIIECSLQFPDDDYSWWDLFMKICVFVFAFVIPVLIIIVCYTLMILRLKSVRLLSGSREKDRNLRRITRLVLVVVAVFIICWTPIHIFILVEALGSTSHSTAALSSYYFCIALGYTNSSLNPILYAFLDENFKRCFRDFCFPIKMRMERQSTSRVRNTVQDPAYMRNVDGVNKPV
Experimental: as §1

kappa opioid receptor [3] = biological target: T2, kappa opioid receptor; assay: Antagonism of U50488H (selective kappa agonist) on the GPI, IC50 ratio; type: cell-based, guinea pig; details: for GPI IC50 Ratio, U50488H: IC50 of agonist in presence of antagonist / control IC50
Experimental: as §1

mouse vas deferens (MVD) = assay: Agonism on the mouse vas deferens preparation (MVD); type: cell-based; details: for Emax at 1 µM: Mus musculus, read-out: MVD Agonism (maximal response at highest concentration)
Experimental: (§5) This assay was performed according to the description by Henderson et al., Brit. J. Pharmacol., 46, 764 (1972), the disclosure of which is incorporated by reference herein. Both vasa deferentia were dissected out of mice and mounted singly through two platinum ring electrodes in a 10 ml organ bath. The bath contained Krebs bicarbonate solution that was continuously bubbled with 95% O2 and 5% CO2. The organ bath was maintained at 37° C. The tissue was attached to an isometric transducer and stimulated transmurally with rectangular pulses ([…], 1 ms duration, supramaximal voltage). Drugs were added cumulatively to the bath in 10 to 50 ul amounts and washed out after noting their maximum effect.
as §2, §3, §4

delta opioid receptor = biological target: T3, delta opioid receptor (Mus musculus, UniProt P32300); assay: Antagonism of DADLE (selective delta agonist) on the MVD, IC50 ratio; type: cell-based; details: IC50 of agonist in presence of antagonist / control IC50
T3 construct: Both vasa deferentia were dissected out of mice; from tissue; host or cells: mouse vas deferens
T3 sequence (P32300 whole entry): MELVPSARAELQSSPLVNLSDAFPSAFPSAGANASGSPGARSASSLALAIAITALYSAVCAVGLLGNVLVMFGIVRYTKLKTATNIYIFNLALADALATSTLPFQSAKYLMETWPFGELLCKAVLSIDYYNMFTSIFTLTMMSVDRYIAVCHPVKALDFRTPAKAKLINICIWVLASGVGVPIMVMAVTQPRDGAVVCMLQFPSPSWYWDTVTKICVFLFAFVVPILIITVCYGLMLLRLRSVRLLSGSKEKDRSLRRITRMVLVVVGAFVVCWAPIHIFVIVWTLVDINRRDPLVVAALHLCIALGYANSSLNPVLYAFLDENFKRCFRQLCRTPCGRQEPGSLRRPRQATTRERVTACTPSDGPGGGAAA
Experimental: as §5

[4] = Mouse writhing procedure, antagonism of agonist; type: in vivo; details: morphine 50 nmol s.c.; antagonist ICV
Experimental: (§6) Mice were treated with 50 nmol of the agonist (morphine, EK, or U50488H) subcutaneously and the antagonist was administered intracerebroventricularly (ICV).

kappa receptors = biological target: T4, kappa receptors (Mus musculus, UniProt P33534); assay: Mouse writhing procedure, antagonism of agonist; type: in vivo; details: antagonist ICV
T4 construct: tested in vivo using the mouse writhing procedure; from tissue
T4 sequence (P33534 whole entry): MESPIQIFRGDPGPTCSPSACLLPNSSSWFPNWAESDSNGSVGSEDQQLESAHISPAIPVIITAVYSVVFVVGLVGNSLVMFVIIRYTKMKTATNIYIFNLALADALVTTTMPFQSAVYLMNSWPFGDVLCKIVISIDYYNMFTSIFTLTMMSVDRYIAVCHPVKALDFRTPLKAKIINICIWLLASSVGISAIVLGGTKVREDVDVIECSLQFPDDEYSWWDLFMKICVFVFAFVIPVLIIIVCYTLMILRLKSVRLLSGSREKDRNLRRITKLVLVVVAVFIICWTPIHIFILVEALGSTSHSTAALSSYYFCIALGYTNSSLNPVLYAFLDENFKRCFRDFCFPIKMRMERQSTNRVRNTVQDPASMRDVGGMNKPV
Experimental: as §6

kappa-opioid receptors = assay: Kappa-opioid antagonist selectivity (comparison of IC50 ratios, GPI and MVD); type: cell-based, guinea pig
Experimental: as §1
This assay was performed according to the description by Henderson et al., Brit. J. Pharmacol., 46, 764 (1972), the disclosure of which is incorporated by reference herein. […]

kappa receptor = details: cited from earlier work
mu receptors = details: cited from earlier work
[5] = antagonist 2 nM, IC50 of agonist in presence of antagonist / control IC50
[6] = antagonist 20 nM, IC50 of agonist in presence of antagonist / control IC50
[7] = Cavia porcellus, read-out: GPI Agonism (maximal response at highest concentration)

Structure (SMILES)	GPI IC50 Ratio, Morphine Sulfate (mu receptor; [6])	GPI IC50 Ratio, Ethylketazocine (kappa opioid receptor [2]; [6])	Emax at 1 µM (mouse vas deferens (MVD)) [%]	MVD IC50 Ratio, DADLE (delta opioid receptor; antagonist 20 nM)	Emax at 1 µM [1, 7] [%]	GPI Agonism, potency of pure agonists relative to morphine = 1 [1]	other results
Oc1ccc2c3c1O[C@H]1c4[nH]c5c(c4C[C@@]4(O)[C@@H](C2)N(CC2CC2)CC[C@]314)C[C@@]1(O)[C@H]2Cc3ccc(O)c4c3[C@@]1(CCN2CC1CC1)[C@H]5O4 [IIIa]	4.7 ± 0.8	49.7 ± 15.6	16	2.0 ± 0.1	–	–	Emax at 0.2 µM ([1]; Cavia porcellus, @ 200 nM, read-out: GPI Agonism (maximal response at highest concentration)): 14%; GPI IC50 Ratio, Morphine Sulfate (mu receptor; [5]): 0.92 ± 0.16; GPI IC50 Ratio, Ethylketazocine (kappa opioid receptor [2]; [5]): 8.8 ± 0.13; antagonism of U50488H in GPI, IC50 ratio values compared with EK (kappa opioid receptor [3]): higher IC50 ratio values were observed; GPI IC50 Ratio, U50488H (kappa opioid receptor [3]; antagonist 2 nM): 11.0 ± 1.1; GPI IC50 Ratio, U50488H (kappa opioid receptor [3]; antagonist 20 nM): 178 ± 18
CC(=O)Oc1ccc2c3c1O[C@H]1c4[nH]c5c(c4C[C@@]4(O)[C@@H](C2)N(CC2CC2)CC[C@]314)C[C@@]1(O)[C@H]2Cc3ccc(OC(C)=O)c4c3[C@@]1(CCN2CC1CC1)[C@H]5O4 [IIId]	8.0 (2)	697 (2)	32	3.5 ± 1.3	32	–	–
Cn1c2c(c3c1[C@@H]1Oc4c(O)ccc5c4[C@@]14CCN(CC1CC1)[C@H](C5)[C@]4(O)C3)C[C@@]1(O)[C@H]3Cc4ccc(O)c5c4[C@@]1(CCN3CC1CC1)[C@H]2O5 [IIIb]	1.2 ± 0.3	165 ± 30	42	4.5 ± 0.7	0	–	agonist activity in GPI [1]: no agonist effect; antagonism of morphine in GPI (mu receptor; 20 nM): no significant antagonism of morphine was observed at 20 nM; agonist activity in MVD (mouse vas deferens (MVD)): no agonist effect; ED50 ratio [(agonist+IIIb)/agonist control], morphine [4]: 0.85; ED50 ratio [(agonist+IIIb)/agonist control], EK (kappa receptors; EK 50 nmol s.c.): 3.85; ED50 ratio [(agonist+IIIb)/agonist control], U50488H (kappa receptors; U50488H 50 nmol s.c.): 15.71; kappa-opioid antagonist selectivity (kappa-opioid receptors): possesses the greatest kappa selectivity; also recorded: "pure" kappa-opioid receptor antagonist
Oc1ccc2c3c1O[C@H]1[C@H](NCCOCCOCCN[C@@H]4CC[C@@]5(O)[C@H]6Cc7ccc(O)c8c7[C@@]5(CCN6CC5CC5)[C@H]4O8)CC[C@@]4(O)[C@@H](C2)N(CC2CC2)CC[C@]314 [TENA, reference compound]	4.20 ± 1.20	19.6 ± 2.40	–	1.2	–	–	Emax at 0.01 µM ([1]; Cavia porcellus, @ 10 nM, read-out: GPI Agonism (maximal response at highest concentration)): 10%; times more effective in antagonizing U50488H relative to morphine (kappa receptor; U50488H vs morphine): about 27 times; times more effective against ethylketazocine relative to morphine (kappa receptor; ethylketazocine vs morphine): about five
CN1CC[C@]23c4c5ccc(O)c4O[C@H]2c2[nH]c4c(c2C[C@@]3(O)[C@H]1C5)C[C@@]1(O)[C@H]2Cc3ccc(O)c5c3[C@@]1(CCN2C)[C@H]4O5 [IIIh]	–	–	–	–	–	0.23 ± 0.05	GPI IC50 Ratio, Morphine Sulfate (mu receptor; compound 50 nM): 0.9 ± 0.2; GPI IC50 Ratio, Ethylketazocine (kappa opioid receptor [2]; compound 50 nM): 0.4 ± 0.05
COc1ccc2c3c1O[C@H]1c4[nH]c5c(c4C[C@@]4(O)[C@@H](C2)N(CC2CC2)CC[C@]314)C[C@@]1(O)[C@H]2Cc3ccc(OC)c4c3[C@@]1(CCN2CC1CC1)[C@H]5O4 [IIIe]	0.8 (2)	4 (2)	39	0.6 ± 0.1	0	–	–
COc1ccc2c3c1O[C@H]1c4[nH]c5c(c4C[C@H]4[C@@H](C2)N(C)CC[C@]314)C[C@H]1[C@H]2Cc3ccc(OC)c4c3[C@@]1(CCN2C)[C@H]5O4 [IIIg]	–	–	–	–	–	0.2 ± 0.04	GPI IC50 Ratio, Morphine Sulfate (mu receptor; compound 100 nM): 0.5 ± 0.07; GPI IC50 Ratio, Ethylketazocine (kappa opioid receptor [2]; compound 100 nM): 0.4 ± 0.07
CCn1c2c(c3c1[C@@H]1Oc4c(O)ccc5c4[C@@]14CCN(CC1CC1)[C@H](C5)[C@]4(O)C3)C[C@@]1(O)[C@H]3Cc4ccc(O)c5c4[C@@]1(CCN3CC1CC1)[C@H]2O5 [IIIc]	2.2 ± 0.7	147 ± 20	41	4.2 ± 1.1	0	–	MVD IC50 Ratio, DADLE (delta opioid receptor; antagonist 2 nM): 1.8 ± 0.3
O=C1CC[C@@]2(O)[C@H]3Cc4ccc(O)c5c4[C@@]2(CCN3CC2CC2)[C@H]1O5 [naltrexone]	–	–	–	–	–	–	potency at mu receptors compared with kappa (mu receptors): much greater potency at mu receptors
CN1CC[C@]23c4c5ccc(O)c4O[C@H]2c2[nH]c4c(c2C[C@H]3[C@H]1C5)C[C@H]1[C@H]2Cc3ccc(O)c5c3[C@@]1(CCN2C)[C@H]4O5 [IIIf]	–	–	–	–	–	3.1 ± 0.4	GPI IC50 Ratio, Morphine Sulfate (mu receptor; compound 10 nM): 0.3 ± 0.1; GPI IC50 Ratio, Ethylketazocine (kappa opioid receptor [2]; compound 10 nM): 0.5 ± 0.04
